Patent publication US8808702B2, “Sulfide, sulfoxide and sulfone chalcone analogues, derivatives thereof and therapeutic uses thereof” (Temple University-of the Commonwealth System of Higher …, priority 2006, dated 2014)
Where two headings read alike, the source gives them in different places.

Tests used:
DU145 (prostate cancer) = assay: Effect of compounds on tumor cell lines (assay of Latham et al.), DU145; assay type: cell-based; details: DU145 cells, read-out: DU 145 potency (IC50)
Method: (§1) The effect of the compounds of the invention on tumor cells was determined by the assay described by Latham et al., Oncogene 12:827-837 (1996). Tumor cells K562 (chronic myelogenous leukaemia) or DU145 (prostate cancer) were plated in 12-well dishes at a cell density of 2.5×10^4 cells well. The plated cells were treated 24 hours later with a compound of the invention dissolved in DMSO at multiple concentrations ranging from 1 μM to 100 μM. The plates were examined 96 hours later under an inverted microscope, Olympus CK-2 using an 10× objective, and compound activity was noted by physical observation. When necessary, the total number of viable cells was determined by trypsinizing the wells and counting the number of viable cells, as determined by trypan blue exclusion, using a hemacytometer.
(§2) The representative compounds listed in Tables 1-5 are shown by way of illustration, and are not intended to limit the scope of the invention. The compounds are prepared and tested by methods based on those described above, except that the compound of Table 5 was dissolved in DMSO at multiple concentrations ranging from 0.1 μM to 100 μM

[1] = tested on: K562 (chronic myelogenous leukaemia); assay: Effect of compounds on tumor cell lines (assay of Latham et al.), K562; assay type: cell-based; details: K562 cells, read-out: K 562 potency (IC50)
Method: as §1, §2

[2] = 96 hours after treatment, 1 μM to 100 μM
[3] = Homo sapiens, DU-145, Table 4, examined 96 hours after treatment, 1 μM to 100 μM in DMSO
[4] = Homo sapiens, Table 4, examined 96 hours after treatment, 1 μM to 100 μM in DMSO
[5] = Table 1, examined 96 hours after treatment, 1 μM to 100 μM in DMSO
[6] = Table 4, examined 96 hours after treatment, 1 μM to 100 μM in DMSO

SMILES | IC50 (DU145 (prostate cancer); [2]) [µM] | IC50 [1, 2] [µM] | IC50 (DU145 (prostate cancer); [5]) [µM] | IC50 [1, 5] [µM] | also measured
CCN(CC)CCNC(=O)c1c(C)[nH]c(/C=C(/SCc2ccc(Br)cc2)C(=O)c2ccc(Br)cc2)c1C [Example 162] | 1 to 10 | 1 to 10 |  |  | 
Cc1ccc(CSC(=Cc2ccc(N(C)C)cc2)C(=O)c2ccc(Cl)cc2)cc1 [Example 285] | 10 to 25 | 10 to 25 |  |  | 
O=C(/C(=C\c1cc(Br)c(O)c(Br)c1)S(=O)(=O)Cc1ccc(Br)cc1)c1ccc(Br)cc1 [Example 368] |  |  |  |  | IC50 (DU145 (prostate cancer); [3]): 25 to 50 µM; IC50 [1, 4]: 25 to 50 µM
O=C(O)c1ccc(C(=O)/C(=C\c2ccc(F)c([N+](=O)[O-])c2)SCc2ccccc2)cc1 [Example 353] | 1 to 10 | ≤ 1 |  |  | 
O=C(C(=Cc1cccc(Cl)c1Cl)SCc1ccc(Cl)cc1)c1ccc(Cl)cc1 [Example 191] | 10 to 25 | 1 to 10 |  |  | 
Cc1ccc(SC(=Cc2c[nH]c3ccc(Br)cc23)C(=O)c2ccc(Cl)cc2)cc1 [Example 106] |  |  | 1 to 10 | 1 to 10 | 
Cc1ccc(C=C(SCc2ccc(Cl)cc2)C(=O)c2ccc([N+](=O)[O-])cc2)s1 [Example 231] | 25 to 50 | 25 to 50 |  |  | 
CSc1ccc(C=C(Sc2ccc(Br)cc2)C(=O)c2ccc(Cl)cc2)cc1 [Example 46] |  |  | 1 to 10 | 1 to 10 | 
COc1cc(C=C(Sc2ccc(Br)cc2)C(=O)c2ccc(Br)cc2)ccc1O [Example 41] |  |  | 1 to 10 | 1 to 10 | 
CN(C)c1ccc(C=C(Sc2ccc(Br)cc2)C(=O)c2ccc(Cl)cc2)cc1 [Example 49] |  |  | > 100 | > 100 | 
O=C(O)c1ccc(C(=O)/C(=C\c2ccc(Cl)c([N+](=O)[O-])c2)S(=O)(=O)Cc2ccc(Br)cc2)cc1 [Example 372] |  |  |  |  | IC50 (DU145 (prostate cancer); [3]): 25 to 50 µM; IC50 [1, 4]: 25 to 50 µM
Cc1ccc(CSC(=Cc2ccc(F)cc2C(F)(F)F)C(=O)c2ccc(Cl)cc2)cc1 [Example 290] | 50 to 100 | 50 to 100 |  |  | 
Cc1ccc(SC(=Cc2ccc(N(C)C)cc2)C(=O)c2ccc(Cl)cc2)cc1 [Example 102] |  |  | > 100 | > 100 | 
O=C(C(=Cc1c[nH]c2ccc(Cl)cc12)SCc1ccc(F)cc1)c1ccc(Br)cc1 [Example 267] | 1 to 10 | 1 to 10 |  |  | 
O=C(C(=Cc1cccc(Cl)c1Cl)SCc1ccc(Cl)cc1Cl)c1ccc(Cl)cc1 [Example 114] | 1 to 10 | 1 to 10 |  |  | 
O=C(C(=Cc1ccc(O)cc1O)Sc1ccc(Br)cc1)c1ccc(Cl)cc1 [Example 16] |  |  | 50 to 100 | 25 to 50 | 
O=C(C(=Cc1ccccc1OCc1ccccc1)Sc1ccc(F)cc1)c1ccc(Cl)cc1 [Example 55] |  |  | 1 to 10 | 1 to 10 | 
COc1ccccc1/C=C(\C(=O)c1ccc(Cl)cc1)S(=O)(=O)Cc1ccc(C)cc1 [Example 428] |  |  |  |  | IC50 (DU145 (prostate cancer); [3]): 10 to 25 µM; IC50 [1, 4]: 10 to 25 µM
O=C(C(=Cc1ccc(Cl)cc1)Sc1ccc(Cl)cc1)c1ccc(Cl)cc1 [Example 53] |  |  | 1 to 10 | 1 to 10 | 

SMILES | IC50 (DU145 (prostate cancer); [2]) [µM] | IC50 [1, 2] [µM] | IC50 (DU145 (prostate cancer); [5]) [µM] | IC50 [1, 5] [µM] | also measured
O=C(C(=Cc1ccc(O)c(C(=O)O)c1)SCc1ccc(Br)cc1)c1ccc(Br)cc1 [Example 151] | 10 to 25 | 25 to 50 |  |  | 
COc1ccc(C=C(SCc2ccc(F)cc2)C(=O)c2ccc(Br)cc2)cc1 [Example 265] | 25 to 50 | 1 to 10 |  |  | 
Cc1[nH]c(/C=C(/SCc2ccc(Br)cc2)C(=O)c2ccc(Br)cc2)c(C)c1C(=O)O [Example 167] | 50 to 100 | 50 to 100 |  |  | 
O=C(C(=Cc1ccc([N+](=O)[O-])c(O)c1)Sc1c(F)c(F)c(F)c(F)c1F)c1ccc(Br)cc1 [Example 1] |  |  | 10 to 25 | 1 to 10 | 
O=C(C(=Cc1c(O)cc(O)cc1O)SCc1ccc(Cl)cc1)c1ccc(Cl)cc1 [Example 192] | > 100 | > 100 |  |  | 
O=C(O)c1ccc(C(=O)C(=Cc2ccc(Br)c([N+](=O)[O-])c2)SCc2ccc(Cl)cc2)cc1 [Example 213] | 1 to 10 | ≤ 1 |  |  | 
COc1ccc(C=C(Sc2ccc(C)cc2)C(=O)c2ccc(Br)cc2)cc1 [Example 99] |  |  | 50 to 100 | 10 to 25 | 
O=C(C(=Cc1ccc(OCc2ccccc2)cc1)SCc1ccc(Cl)cc1)c1ccc(Cl)cc1 [Example 212] | 1 to 10 | 10 to 25 |  |  | 
O=C(C(=Cc1ccc(F)c([N+](=O)[O-])c1)SCc1ccc(Br)cc1)c1ccc(Cl)c([N+](=O)[O-])c1 [Example 317] | > 100 | > 100 |  |  | 
O=C(C(=Cc1cccnc1)SCc1ccc(Cl)cc1)c1ccc(Br)cc1 [Example 321] | 1 to 10 | 1 to 10 |  |  | 
O=C(/C(=C\c1cc(I)c(O)c(I)c1)SCc1ccc(Br)cc1)c1ccc(Br)cc1 [Example 173] | 1 to 10 | 1 to 10 |  |  | 
O=C(C(=Cc1ccc([N+](=O)[O-])cc1)SCc1ccc(Cl)cc1)c1ccc(Cl)cc1 [Example 326] | 1 to 10 | 1 to 10 |  |  | 
O=C(/C(=C\c1ccc(F)c([N+](=O)[O-])c1)SCc1ccc(F)cc1)c1ccc(O)cc1 [Example 342] | ≤ 1 | ≤ 1 |  |  | 
COc1ccccc1C=C(Sc1ccc(Br)cc1)C(=O)c1ccc(Cl)cc1 [Example 25] |  |  | 10 to 25 | 10 to 25 | 
O=C(C(=Cc1ccccc1O)Sc1ccccc1Br)c1ccc(Br)cc1 [Example 8] |  |  | 50 to 100 | 50 to 100 | 
Cc1ccc(CS/C(=C/c2ccc(F)c([N+](=O)[O-])c2)C(=O)c2ccc(C(=O)O)cc2)cc1 [Example 347] | 1 to 10 | ≤ 1 |  |  | 
CC1=CC(=O)C(C)=C(C(C)(C)CC(=O)Oc2cc(C=C(SCc3ccc(Br)cc3)C(=O)c3ccc(Br)cc3)ccc2[N+](=O)[O-])C1=O [Example 307] | 1 to 10 | 1 to 10 |  |  | 
COc1cc(OC)c(C=C(Sc2ccc(C)cc2)C(=O)c2ccc(Cl)cc2)c(OC)c1 [Example 70] |  |  | > 100 | 25 to 50 | 
Cc1ccc(SC(=Cc2ccc(F)c(C)c2)C(=O)c2ccc(Br)cc2)cc1 [Example 95] |  |  | 25 to 50 | 1 to 10 | 

SMILES | IC50 (DU145 (prostate cancer); [2]) [µM] | IC50 [1, 2] [µM] | IC50 (DU145 (prostate cancer); [5]) [µM] | IC50 [1, 5] [µM] | also measured
Cc1ccc(SC(=Cc2sccc2C)C(=O)c2ccc(Br)cc2)cc1 [Example 82] |  |  | > 100 | 50 to 100 | 
Cc1cc(C)cc(C=C(SCc2ccc(F)cc2)C(=O)c2ccc(Br)cc2)c1 [Example 242] | 10 to 25 | 1 to 10 |  |  | 
O=C(C(=Cc1ccc(O)c(Br)c1)Sc1ccc(Br)cc1)c1c(F)c(F)c(F)c(F)c1F [Example 27] |  |  | 1 to 10 | 1 to 10 | 
O=C(C(=Cc1ccc(O)c([N+](=O)[O-])c1)Sc1ccccc1Br)c1ccc(Br)cc1 [Example 10] |  |  | 1 to 10 | 10 to 25 | 
Cc1ccc(CSC(=Cc2ccccc2F)C(=O)c2ccc(Br)cc2)cc1 [Example 277] | 10 to 25 | 1 to 10 |  |  | 
Cc1ccc(CSC(=Cc2ccc(O)c(O)c2O)C(=O)c2ccc(Cl)cc2)cc1 [Example 270] | 50 to 100 | 50 to 100 |  |  | 
O=C(C(=Cc1ccc(Cl)cc1)SCc1ccc(Cl)cc1)c1ccc(Br)cc1 [Example 218] | 10 to 25 | 1 to 10 |  |  | 
O=C(/C(=C\c1ccc(O)c([N+](=O)[O-])c1)SCc1ccc(Br)cc1)c1ccc(O)cc1O [Example 177] | > 100 | 50 to 100 |  |  | 
O=C(O)c1ccc(C(=O)C(=Cc2ccc(Cl)c([N+](=O)[O-])c2)SCc2ccc(F)cc2)cc1 [Example 255] | 1 to 10 | ≤ 1 |  |  | 
O=C(/C(=C\c1ccc(O)c([N+](=O)[O-])c1)S(=O)(=O)Cc1ccc(Br)cc1)c1c(F)c(F)c(F)c(F)c1F [Example 373] |  |  |  |  | IC50 (DU145 (prostate cancer); [6]): 50 to 100 µM; IC50 [1, 6]: 50 to 100 µM
Cc1ccc(SC(=Cc2ccc(F)cc2OC(F)(F)F)C(=O)c2ccc(Br)cc2)cc1 [Example 94] |  |  | 25 to 50 | 25 to 50 | 
O=C(/C(=C\c1ccc(F)c([N+](=O)[O-])c1)SCc1ccc(F)cc1)c1ccc(F)cc1 [Example 341] | 1 to 10 | ≤ 1 |  |  | 
O=C(C(=Cc1cccnc1)SCc1ccc(Cl)cc1)c1ccc(Cl)cc1 [Example 322] | 1 to 10 | 1 to 10 |  |  | 
COc1cc(OC)c(C=C(SCc2ccc(Cl)cc2)C(=O)c2ccc(Br)cc2)c(OC)c1 [Example 193] | 1 to 10 | 10 to 25 |  |  | 
Cc1ccc(SC(=Cc2ccc(C)s2)C(=O)c2ccc(Br)cc2)cc1 [Example 109] |  |  | > 100 | 50 to 100 | 
CN1CCN(CCCNC(=O)c2ccc(C(=O)C(=Cc3ccc(F)c([N+](=O)[O-])c3)SCc3ccc(Br)cc3)cc2)CC1 [Example 314] | 1 to 10 | 1 to 10 |  |  | 
O=C(O)c1ccc(C=C(SCc2ccc(Cl)cc2)C(=O)c2ccc(C(=O)O)cc2)cc1 [Example 323] | > 100 | > 100 |  |  | 
O=C(C(=Cc1ccc(N2CCN(CCO)CC2)c([N+](=O)[O-])c1)SCc1ccc(F)cc1)c1ccc(F)cc1 [Example 330] | 1 to 10 | ≤ 1 |  |  | 
